These results are taken from patent US20090123512A1, “Quorum Sensing Modulators” (priority 2005, published 2009).

The subject of this test is MW1. As to the kind of experiment: Elastase production in culture supernatant, MW1. The test is classed as cell-based, Pseudomonas aeruginosa. The protocol: Elastase activity was measured according to the procedure described by Pearson et al. in J. Bacteriol. 179:5756-67 (1997) and pyocyanin concentration was measured according to the procedure described by Essar et al. in J. Bacteriol. 172:884-900 (1990). Protocols were modified slightly to be consistent with the conditions of transcriptional profiling. Cultures were grown in LB amended with 50 mM MOPS pH 7.0. Mid-log cultures were either subcultured directly (MW1) or washed twice with medium (PAO1) and then subcultured to an absorbance at 600 nm (A600) of 0.01. Cultures (1 mL) were grown in the presence of test compounds in 16 mm tubes at 37° C., 250 rpm.
For elastase activity, cultures were grown for 6 hours. Cells were removed by centrifugation and the culture supernatant filtered through a 0.2 μm filter. A 100 μL volume of filtered supernatant was added to 900 μL of 5 mg/mL Elastin Congo Red (Elastin Products Company; Owensville, Mo.) in 1 mM CaCl2, 100 mM Tris HCL, pH 7.2. Reactions were incubated at 37° C., 250 rpm for 18 h. Reactions were stopped by the addition of 100 μL 0.12 M EDTA, undigested substrate removed through centrifugation and the absorbance at 495 nm measured.

Take `CCCC(=O)N[C@H]1CCOC1=O` [Compound C4-HSL, butyryl homoserine lactone]: for the setting “MW1, 25 μM C4-HSL added to 0.3 μM 3-oxo-C12-HSL”, the “elastase activity in supernatant restored by exogenous signal” value is “maximal elastase activity was measured”.

In the case of `CCCCCCCCCC(=O)CC(=O)NC1CCOC1=O` (stereo not drawn) [3-oxo-C12-HSL, 3-oxo-dodecanoyl homoserine lactone], the “elastase activity in supernatant restored by exogenous signal” value was “restored about one third of the achievable activity” (MW1, 0.3 μM (half-maximal) 3-oxo-C12-HSL alone) and “did not increase elastase activity further” (MW1, saturating 3-oxo-C12-HSL (25 μM) in addition to saturating C4-HSL (25 μM)).
